Measurements reported in patent US7592003B2, “Regulation of toll-like receptors on stem cells” (Oklahoma Medical Research Foundation, priority 2005, dated 2009).

System: LKS^+ cells
Test: Serum-free, stromal cell-free culture of sorted LKS+ cells, lineage markers by flow cytometry
Assay type: cell-based, mouse
Procedure: FIGS. 2A-D—Activation of TLRs through MyD88 on LKS^+ cells leads to myeloid cell differentiation. (FIG. 2A) Left, sorted LKS^+ cells (10,000 cells/well) from C57BL/6 or MyD88^−/− mice were cultured in the presence of FL and SCF with medium alone, LPS (10 μg/ml) or Pam3CSK4 (1 μg/ml). After 72 h in culture, cells were analyzed by flow cytometry for expression of lineage markers. Percentages indicate the frequencies of Lin^+ or Lin^− cells. Right, the bar graph depicts yields, i.e., numbers of Lin^+ cell recovered per input progenitor and the data represent mean values with standard deviations from triplicate cultures (*P<0.01). The results are representative of five independent experiments. […] After 72 or 96 h in culture, cells were analyzed by flow cytometry for Mac-1 and F4/80. […] After 72 h in culture, cells were analyzed by flow cytometry for expression of lineage markers. […]
FIG. 11A-B—TLR stimulation causes a progression of Lin^+ cells from LKS^+ cells and soluble CD14 augments the acquisition of Mac-1 and F4/80. […] After 24 or 48 h in culture, cells were analyzed by flow cytometry for expression of lineage markers and percentages of Lin^+ or Lin^− cells are indicated. […] After 24, 48, or 72 h in culture, cells were analyzed by flow cytometry for expression of lineage markers. […] After 72 h in culture, cells were analyzed by flow cytometry for expression of Mac-1 and F4/80. […]

Pam3CSK4
Increase of absolute numbers of Lin+ cells (LKS+ cells with FL and SCF, within 72 h): approximately eight-fold
Increase of Lin+ cells with cells from MyD88-deficient mice (MyD88-deficient LKS+ cells, 72 h): did not occur
